Experimental findings from article PMC6152277, “Synthesis and Evaluation of New Quinoxaline Derivatives of Dehydroabietic Acid as Potential Antitumor Agents” (Molecules : A Journal of Synthetic Chemistry and Natural …, 2017) are described below.

For assay [1], the system named is human breast cancer cell line (MCF-7). Description: MTT cytotoxic assay, MCF-7. Format: cell-based. Conditions: MCF7, 48 h exposure. On the procedure:
(§1) All the compounds (1–3, 4a–o) were evaluated for their in vitro cytotoxic activity against three cancer cell lines including human breast cancer cell line (MCF-7), human hepatocarcinoma cell line (SMMC-7721), human cervical carcinoma cell line (HeLa), and a noncancerous human hepatocyte cell line (LO2) using the MTT assay method. An anticancer drug etoposide (VP-16) was co-assayed as the positive control. The results of the test compounds shown as IC50 values (concentration required to inhibit tumor cell proliferation by 50%), are listed in Table 1.
(§2) The in vitro cytotoxic activities of the quinoxaline derivatives of DAA were evaluated against a human breast cancer cell line (MCF-7), human hepatocarcinoma cell line (SMMC-7721), human cervical carcinoma cell line (HeLa) and noncancerous human hepatocyte cells (LO2) via the MTT colorimetric method. Briefly, different tumor cells were grown in DMEM supplemented with 10% fetal bovine serum, penicillin (100 U/mL), and streptomycin (50 μg/mL). Cells were harvested at the log phase of growth and seeded in 96-well plates (100 μL/well at a density of 2 × 10^5 cells/mL). After 24 h of incubation at 37 °C and 5% CO2 to allow for cell attachment, cultures were exposed to various concentrations of the isolated compounds for 48 h. Finally, the MTT solution (2.5 mg/mL in PBS) was added (40 μL/well). Plates were further incubated for 4 h at 37 °C, and the formazan crystals formed were dissolved by adding 150 μL/well of DMSO. Absorption at 570 nm was measured with an ELISA plate reader. The results were expressed as IC50 values with standard deviations, which were defined as the concentrations at which a 50% survival of the cells was discerned. Etoposide (VP-16) was co-assayed as the positive control.
Background: Tetrazolium assays rely on reduction of a dye to a coloured formazan, in cell work by metabolically active cells.

In assay [2] the test system is human hepatocarcinoma cell line (SMMC-7721). Description: MTT cytotoxic assay, SMMC-7721. Format: cell-based. The note with it: 48 h exposure. On the procedure: as §1, §2
Assay [3] has as its system human cervical carcinoma cell line (HeLa). Description: MTT cytotoxic assay, HeLa. Format: cell-based. Conditions: 48 h exposure. On the procedure:
as §1, §2

The subject of assay [4] is noncancerous human hepatocyte cells (LO2). Description: MTT cytotoxic assay, LO2. Format: cell-based. The note with it: 48 h exposure, noncancerous hepatocytes. On the procedure: as §1, §2
Assay [5] has as its system SMMC-7721 cells. Description: Cell cycle analysis (PI staining, flow cytometry). The class given is cell-based, human. On the procedure: Subsequently, to determine the possible role of the cell cycle arrest in cell growth inhibition induced by target compounds, SMMC-7721 cells were treated with different concentrations of compound 4b. The cell cycle distribution was investigated by flow cytometric analysis after staining of DNA with propidium iodide (PI).
SMMC-7721 cells were treated with indicated concentrations of compound 4b. After incubation for 48 h, the cells were washed twice with ice-cold PBS, fixed and permeabilized with ice-cold 70% ethanol at −20 °C overnight. The cells were treated with 100 μg/mL RNase A at 37 °C for 30 min after being washed with ice-cold PBS, and finally stained with 400 μL of 1 mg/mL PI in the dark at 4 °C for 30 min. The samples were then analyzed for their DNA content by flow cytometry (Becton-Dickinson FACSCalibur, New York, NY, USA).
For orientation: Flow cytometry measures light scatter and fluorescence of single cells or particles in a stream.

In assay [6] the test system is SMMC-7721 cells. Description: Hoechst 33258 staining assay. Format: cell-based, human. Conditions: SMMC-7721, 0.2, 1.0 and 5.0 μM, 24 h. On the procedure: To investigate the morphological changes induced by compound 4b in SMMC-7721 cells, Hoechst staining was carried out. Hoechst 33258 is a cell membrane permeable dye, which stains the live cells’ nuclei uniformly as light-blue and apoptotic cells’ nuclei as round and bright-blue, on account of karyopyknosis and chromatin condensation. SMMC-7721 cells were treated with various concentrations (0, 0.2, 1.0 and 5.0 μM) of compound 4b for 24 h, and stained with Hoechst 33258.
Cells grown on a sterile cover slip in six-well plates were treated with different concentrations of the test compound for 24 h. The culture medium containing compounds was removed, and the cells were fixed in 4% paraformaldehyde for 10 min. After being washed twice with PBS, the cells were stained with 0.5 mL of Hoechst 33258 (Beyotime, Haimen, China) for 5 min, and then again washed twice with PBS. The stained nuclei were observed under a Nikon ECLIPSETE2000-S fluorescence microscope using 350 nm for excitation and 460 nm for emission.

Assay [7] relates to SMMC-7721 cells. Description: Annexin V-FITC/PI dual staining assay. The class given is cell-based, human. An excerpt: The apoptotic effect of compound 4b was further evaluated by a Annexin V-FITC/propidium iodide (AV/PI) dual staining assay to examine the occurrence of phosphatidylserine externalization, which facilitated the detection of live cells (lower left quadrant; AV−/PI−), early apoptotic cells (lower right quadrant; AV+/PI−), late apoptotic cells (upper right quadrant; AV+/PI+) and necrotic cells (upper left quadrant; AV−/PI+).
Apoptosis was discriminated with the Annexin V-FITC/PI dual staining assay. SMMC-7721 cells were seeded at 1 × 10^5 cells per well in 10% fetal calf serum (FBS)-DMEM into six-well plates, and treated with compound 4b for 24 h. The cells were washed twice with cold PBS and then resuspended in 1 × binding buffer (0.1 M Hepes/NaOH (pH 7.4), 1.4 M NaCl, 25 mM CaCl2) at a concentration of 1 × 10^6 cells/mL. The solution (100 μL) was transferred to 5 mL culture tubes, and 5 μL of Annexin V-FITC (BD, Pharmingen) and 5 μL of PI were added to each tube. The cells were gently vortexed, and incubated for 30 min at 25 °C in the dark. PBS (200 μL) was added to each tube. The analysis was performed on a flow cytometry (Becton-Dickinson FACSCalibur, New York, NY, USA).

For `CCN(CC)Cc1nc2c(Br)cc3c(c2nc1CN(CC)CC)CCC1[C@](C)(C(=O)OC)CCC[C@]31C` (stereo partly shown) [Compound 4b, Methyl 12-bromo-2′,3′-bis((diethylamino)methyl)-13,14-pyrazinyldeisopropyl-dehydroabietate], the IC50 (in general, the concentration needed to halve the response being measured) in assay [1] came to 1780 ± 360 nM; in assay [2], 720 ± 90 nM; in assay [3], 1080 ± 120 nM; in assay [4], 11.1 ± 0.57 µM. Moreover, the cell cycle arrest entry with SMMC-7721 cells [5] (SMMC-7721, 1.0-10.0 μM, 48 h) is “arrest SMMC-7721 cells in the G0/G1 stage”. This compound returned a G2/M phase cells in the assay with SMMC-7721 cells [5] (SMMC-7721, 48 h, end of the range 0-10.0 μM (control 10.42 ± 0.68%)) of 18.13 ± 0.13%. Moreover, the S phase cells in the assay with SMMC-7721 cells [5] (SMMC-7721, 48 h, end of the range 0-10.0 μM (control 32.24 ± 0.21%)) was 8.54 ± 0.57%. This compound showed a G0/G1 phase cells in the assay with SMMC-7721 cells [5] (SMMC-7721, 48 h, end of the range 0-10.0 μM (control 57.34 ± 0.48%)) of 73.33 ± 0.69%. In addition, the “nuclear morphological changes / apoptosis (Hoechst 33258)” value in the assay on SMMC-7721 cells [6] is reported as “induce apoptosis of SMMC-7721 cells in a dose-dependent manner”. For the same compound, in the assay on SMMC-7721 cells [7] (SMMC-7721, 5.0 μM, 24 h (control 2.84 ± 0.26%)), the “percentage of early apoptotic cells (AV+/PI−)” value came out at 17.44 ± 0.68%. In addition, the “percentage of late apoptotic cells (AV+/PI+)” value in the assay with SMMC-7721 cells [7] (SMMC-7721, 5.0 μM, 24 h (control 7.45 ± 0.42%)) was 52.36 ± 1.23%. The “apoptotic cells (early + late)” value in the assay on SMMC-7721 cells [7] (SMMC-7721, 5.0 μM, 24 h (control 10.29%)) is 69.80%. The “induction of apoptosis (Annexin V-FITC/PI)” value in the assay on SMMC-7721 cells [7] (SMMC-7721, 24 h) is “induce the apoptosis of SMMC-7721 cells in a dose-dependent manner”.
